From PubChem BioAssay (NCI)
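Grown in 96-well plates, cells were treated for 48 hours with each compound at five concentrations. Insufficient inhibition: endpoint recorded as highest concentration tested. The concentration for 50% growth inhibition is given as GI50. The concentration for full growth arrest is given as TGI.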

Assays:
Test in all cases: growth of human tumour cells (NCI), 48 h
SR leukemia = test system: SR leukemia
U251 CNS = test system: U251 CNS
HOP-62 NSCLC = test system: HOP-62 NSCLC
HCT-116 colon = test system: HCT-116 colon
HL-60(TB) leukemia = test system: HL-60(TB) leukemia
K-562 leukemia = test system: K-562 leukemia
COLO 205 colon = test system: COLO 205 colon
OVCAR-3 ovarian = test system: OVCAR-3 ovarian
SN12C renal = test system: SN12C renal
SF-268 CNS = test system: SF-268 CNS
SW-620 colon = test system: SW-620 colon
KM12 colon = test system: KM12 colon
LOX IMVI melanoma = test system: LOX IMVI melanoma
SF-539 CNS = test system: SF-539 CNS
RPMI-8226 leukemia = test system: RPMI-8226 leukemia
EKVX NSCLC = test system: EKVX NSCLC
SNB-75 CNS = test system: SNB-75 CNS
SNB-19 CNS = test system: SNB-19 CNS
UACC-257 melanoma = test system: UACC-257 melanoma
CCRF-CEM leukemia = test system: CCRF-CEM leukemia
TK-10 renal = test system: TK-10 renal
IGROV1 ovarian = test system: IGROV1 ovarian
UO-31 renal = test system: UO-31 renal
786-0 renal = test system: 786-0 renal
NCI-H226 lung = test system: NCI-H226 lung
SK-OV-3 ovarian = test system: SK-OV-3 ovarian
MCF7 breast = test system: MCF7 breast
DU-145 prostate = test system: DU-145 prostate
RXF 393 renal = test system: RXF 393 renal
T-47D breast = test system: T-47D breast
MOLT-4 leukemia = test system: MOLT-4 leukemia
OVCAR-4 ovarian = test system: OVCAR-4 ovarian
NCI-H23 lung = test system: NCI-H23 lung
NCI-H522 lung = test system: NCI-H522 lung
HS 578T breast = test system: HS 578T breast
SK-MEL-28 melanoma = test system: SK-MEL-28 melanoma
HOP-92 NSCLC = test system: HOP-92 NSCLC
NCI/ADR-RES ovarian = test system: NCI/ADR-RES ovarian
HCC-2998 colon = test system: HCC-2998 colon
OVCAR-5 ovarian = test system: OVCAR-5 ovarian
PC-3 prostate = test system: PC-3 prostate
BT-549 breast = test system: BT-549 breast
A549 NSCLC = test system: A549 NSCLC
SK-MEL-5 melanoma = test system: SK-MEL-5 melanoma
UACC-62 melanoma = test system: UACC-62 melanoma
MALME-3M melanoma = test system: MALME-3M melanoma
OVCAR-8 ovarian = test system: OVCAR-8 ovarian
A498 renal = test system: A498 renal
NCI-H460 lung = test system: NCI-H460 lung
M14 melanoma = test system: M14 melanoma
HT29 colon = test system: HT29 colon
SK-MEL-2 melanoma = test system: SK-MEL-2 melanoma
SF-295 CNS = test system: SF-295 CNS
ACHN renal = test system: ACHN renal
HCT-15 colon = test system: HCT-15 colon
MDA-MB-231 breast = test system: MDA-MB-231 breast
CAKI-1 renal = test system: CAKI-1 renal
MDA-MB-435 = test system: MDA-MB-435

CCO/C=N/C1=C(C#N)C(c2ccc(Cl)cc2)c2sc3c(C)cccc3c2O1 (stereo unspecified)
GI50 (SR leukemia): 0.542 µM | TGI (SR leukemia): > 47.2 µM | GI50 (U251 CNS): 0.609 µM | TGI (U251 CNS): 12.7 µM | GI50 (HOP-62 NSCLC): 0.574 µM | TGI (HOP-62 NSCLC): 18.6 µM | GI50 (HCT-116 colon): 0.448 µM | TGI (HCT-116 colon): 11.1 µM | GI50 (HL-60(TB) leukemia): 0.329 µM | TGI (HL-60(TB) leukemia): 13.9 µM | GI50 (K-562 leukemia): 0.379 µM | TGI (K-562 leukemia): > 51.3 µM | GI50 (COLO 205 colon): 1.99 µM | TGI (COLO 205 colon): 6.93 µM | GI50 (OVCAR-3 ovarian): 0.409 µM | TGI (OVCAR-3 ovarian): 7.85 µM | GI50 (SN12C renal): 0.865 µM | TGI (SN12C renal): 12.6 µM | GI50 (SF-268 CNS): 1.49 µM | TGI (SF-268 CNS): 19.4 µM | GI50 (SW-620 colon): 0.451 µM | TGI (SW-620 colon): 15.8 µM | GI50 (KM12 colon): 0.551 µM | TGI (KM12 colon): 15.7 µM | GI50 (LOX IMVI melanoma): 0.611 µM | TGI (LOX IMVI melanoma): 13 µM | GI50 (SF-539 CNS): 0.379 µM | TGI (SF-539 CNS): 1.81 µM | GI50 (RPMI-8226 leukemia): 0.408 µM | TGI (RPMI-8226 leukemia): 15.8 µM | GI50 (EKVX NSCLC): 0.604 µM | TGI (EKVX NSCLC): 15.6 µM | GI50 (SNB-75 CNS): 0.234 µM | TGI (SNB-75 CNS): 1.41 µM | GI50 (SNB-19 CNS): 0.566 µM | TGI (SNB-19 CNS): 16.3 µM | GI50 (UACC-257 melanoma): 12.1 µM | TGI (UACC-257 melanoma): 32.1 µM | GI50 (CCRF-CEM leukemia): 0.371 µM | TGI (CCRF-CEM leukemia): 19.4 µM | GI50 (TK-10 renal): 9.74 µM | TGI (TK-10 renal): 30 µM | GI50 (IGROV1 ovarian): 0.517 µM | TGI (IGROV1 ovarian): 15 µM | GI50 (UO-31 renal): 0.562 µM | TGI (UO-31 renal): 17.1 µM | GI50 (786-0 renal): 0.976 µM | TGI (786-0 renal): 13.9 µM | GI50 (NCI-H226 lung): 1.15 µM | TGI (NCI-H226 lung): 15.4 µM | GI50 (SK-OV-3 ovarian): 2.7 µM | TGI (SK-OV-3 ovarian): 22.1 µM | GI50 (MCF7 breast): 0.327 µM | TGI (MCF7 breast): 11.6 µM | GI50 (DU-145 prostate): 0.758 µM | TGI (DU-145 prostate): 14.4 µM | GI50 (RXF 393 renal): 0.275 µM | TGI (RXF 393 renal): 1.33 µM | GI50 (T-47D breast): 0.462 µM | TGI (T-47D breast): 29.2 µM | GI50 (MOLT-4 leukemia): 0.808 µM | TGI (MOLT-4 leukemia): > 88.9 µM | GI50 (OVCAR-4 ovarian): 1.35 µM | TGI (OVCAR-4 ovarian): 19.9 µM | GI50 (NCI-H23 lung): 1.33 µM | TGI (NCI-H23 lung): 19.2 µM | GI50 (NCI-H522 lung): 0.398 µM | TGI (NCI-H522 lung): 5.05 µM | GI50 (HS 578T breast): 0.414 µM | TGI (HS 578T breast): 11.5 µM | GI50 (SK-MEL-28 melanoma): 2.48 µM | TGI (SK-MEL-28 melanoma): 22.4 µM | GI50 (HOP-92 NSCLC): 0.188 µM | TGI (HOP-92 NSCLC): 3.76 µM | GI50 (NCI/ADR-RES ovarian): 0.438 µM | TGI (NCI/ADR-RES ovarian): 13.4 µM | GI50 (HCC-2998 colon): 1.51 µM | TGI (HCC-2998 colon): 8.52 µM | GI50 (OVCAR-5 ovarian): 2.37 µM | TGI (OVCAR-5 ovarian): 15.5 µM | GI50 (PC-3 prostate): 0.377 µM | TGI (PC-3 prostate): 12.1 µM | GI50 (BT-549 breast): 1.83 µM | TGI (BT-549 breast): 11.4 µM | GI50 (A549 NSCLC): 0.749 µM | TGI (A549 NSCLC): 15.1 µM | GI50 (SK-MEL-5 melanoma): 0.845 µM | TGI (SK-MEL-5 melanoma): 10.4 µM | GI50 (UACC-62 melanoma): 0.447 µM | TGI (UACC-62 melanoma): 14.8 µM | GI50 (MALME-3M melanoma): 0.689 µM | TGI (MALME-3M melanoma): 23.4 µM | GI50 (OVCAR-8 ovarian): 1.19 µM | TGI (OVCAR-8 ovarian): 15.9 µM | GI50 (A498 renal): 0.315 µM | TGI (A498 renal): 1.48 µM | GI50 (NCI-H460 lung): 0.406 µM | TGI (NCI-H460 lung): 7.66 µM | GI50 (M14 melanoma): 0.528 µM | TGI (M14 melanoma): 11.9 µM | GI50 (HT29 colon): 0.967 µM | TGI (HT29 colon): 11.9 µM | GI50 (SK-MEL-2 melanoma): 1.06 µM | TGI (SK-MEL-2 melanoma): 20.8 µM | GI50 (SF-295 CNS): 0.288 µM | TGI (SF-295 CNS): 2.47 µM | GI50 (ACHN renal): 0.631 µM | TGI (ACHN renal): 15.1 µM | GI50 (HCT-15 colon): 0.423 µM | TGI (HCT-15 colon): 10.2 µM | GI50 (MDA-MB-231 breast): 2.19 µM | TGI (MDA-MB-231 breast): 15.4 µM | GI50 (CAKI-1 renal): 0.532 µM | TGI (CAKI-1 renal): 18.5 µM | GI50 (MDA-MB-435): 0.214 µM | TGI (MDA-MB-435): 0.516 µM
